Blank lines part the entries; values can stand above or below the molecule they belong to. Residues, ends and D or L forms follow the SMILES beside them. *: point of attachment. Biotin = O=C1N[C@H]2[C@H](CS[C@H]2CCCCC(=O)*)N1; Ahx = NCCCCCC(=O)O
How the values were obtained:
[1] = target: T1, CPB (Homo sapiens, UniProt P15086); conditions: CPB versus TAFIa
T1 sequence (P15086 111-417): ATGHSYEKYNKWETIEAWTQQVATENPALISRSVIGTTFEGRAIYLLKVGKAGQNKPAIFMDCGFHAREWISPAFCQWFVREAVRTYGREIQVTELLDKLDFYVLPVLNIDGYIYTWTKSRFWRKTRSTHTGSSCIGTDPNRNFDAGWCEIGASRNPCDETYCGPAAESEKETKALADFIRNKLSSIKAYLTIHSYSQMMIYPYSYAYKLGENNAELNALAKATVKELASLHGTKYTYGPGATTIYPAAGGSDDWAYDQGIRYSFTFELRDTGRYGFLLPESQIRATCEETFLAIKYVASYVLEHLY
Experimental: (§1) A typical assay (75 μL) contained each studied carboxypeptidase and selected inhibitors (in 5 μL DMSO) in HBSP buffer in 96-well round bottom microtiter plates (Costar 3365 plates). Enzyme and compound were preincubated for 15–30 minutes at room temperature. […] The final substrate concentration was 15 to 50 nM. The amount of carboxypeptidase activity was titrated to result in 40,000–50,000 electrochemiluminescence counts (typically 0.02–0.1 nM, 0.01 nM, 5 nM, and 0.15–0.65 nM. for TAFIa, CPB, CPN and CPM, respectively). […] Ruthenium-labeled G2-10 (25 μL of 0.063 μg/mL) and streptavidin magnetic beads (25 μL of 0.2 mg/mL, Dynabeads M-280) were added to the quenched solution and shaken at 300 rpm for >1 hr. G2-10 antibody and beads were prepared in a BSA diluent containing 150 mM phosphate, pH 7.8, 150 mM NaCl, 3% (w/v) BSA (protease free fraction V) and 0.05% NaN3. The volume was brought to 250 μL with HBSP and read on an Igen 96-well electrochemiluminescence plate reader (M8 Analyzer) at 620 nm. Subtraction of background activity in solutions containing only substrate was performed to determine the final activity. […] One unit was defined as one nM product generated per min.
(§2) All measurements were performed in at least duplicates and the inhibition constants (Ki) were determined by the equation below wherein Vo and Vi are activity in the absence and presence of inhibitors, respectively. Vo/Vi=1+[I]/K1
(§3) Several commercial inhibitors were tested with the electrochemiluminescence assay.
(§4) Hydrolysis of substrate was measured in HBSP (pH 7.4) for TAFIa, CPB, CPM, and CPM. Activities of CPE and CPZ were measures in acetate buffer (pH 5.5) and Tris buffer (pH 7.4), respectively.

[2] = target: T2, CPM (Homo sapiens, UniProt P14384)
T2 sequence (P14384 18-423 limits assumed): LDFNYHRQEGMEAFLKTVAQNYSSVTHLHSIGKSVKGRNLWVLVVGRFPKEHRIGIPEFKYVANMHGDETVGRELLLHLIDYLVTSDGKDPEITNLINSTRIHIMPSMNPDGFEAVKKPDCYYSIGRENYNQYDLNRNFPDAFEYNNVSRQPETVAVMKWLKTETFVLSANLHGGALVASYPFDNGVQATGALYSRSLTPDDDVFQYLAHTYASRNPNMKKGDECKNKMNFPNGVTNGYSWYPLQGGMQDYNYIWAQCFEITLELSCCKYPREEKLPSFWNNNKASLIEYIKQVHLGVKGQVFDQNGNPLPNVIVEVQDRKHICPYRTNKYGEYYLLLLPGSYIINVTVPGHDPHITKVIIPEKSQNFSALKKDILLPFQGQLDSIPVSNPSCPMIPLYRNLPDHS
Experimental: as §1, §2, §3, §4

[3] = target: CPE (Homo sapiens, UniProt P16870); assay: biochemical
Sequence of CPE (Homo sapiens, UniProt P16870) (P16870 43-450 limits assumed): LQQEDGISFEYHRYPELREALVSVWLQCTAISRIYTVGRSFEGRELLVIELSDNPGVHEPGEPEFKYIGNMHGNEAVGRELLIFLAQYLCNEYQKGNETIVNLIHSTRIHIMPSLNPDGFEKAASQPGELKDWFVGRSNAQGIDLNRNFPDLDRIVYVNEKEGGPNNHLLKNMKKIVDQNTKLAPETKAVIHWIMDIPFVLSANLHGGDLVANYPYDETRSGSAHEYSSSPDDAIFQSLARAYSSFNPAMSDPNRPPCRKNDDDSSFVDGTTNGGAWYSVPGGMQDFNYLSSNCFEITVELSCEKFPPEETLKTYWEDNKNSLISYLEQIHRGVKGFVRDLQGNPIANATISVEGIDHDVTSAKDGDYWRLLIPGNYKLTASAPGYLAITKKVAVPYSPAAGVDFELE
Experimental: (§5) Inhibition studies of CPE were performed in an acetate buffer containing 125 mM sodium acetate, pH 5.5, 1.25 mM CoCl2 at 37° C. […] CPE (final concentration 0.15 nM) was pre-incubated with inhibitors for 30 min at room temperature. The electrochemiluminescence substrate (final concentration 50 nM) was added and incubated for 6 hr at 37° C., then quenched with one-third volume of 1 M Tris, pH 8.0.
as §2

[4] = target: T3, CPZ (Homo sapiens, UniProt Q66K79)
T3 sequence (Q66K79 19-652): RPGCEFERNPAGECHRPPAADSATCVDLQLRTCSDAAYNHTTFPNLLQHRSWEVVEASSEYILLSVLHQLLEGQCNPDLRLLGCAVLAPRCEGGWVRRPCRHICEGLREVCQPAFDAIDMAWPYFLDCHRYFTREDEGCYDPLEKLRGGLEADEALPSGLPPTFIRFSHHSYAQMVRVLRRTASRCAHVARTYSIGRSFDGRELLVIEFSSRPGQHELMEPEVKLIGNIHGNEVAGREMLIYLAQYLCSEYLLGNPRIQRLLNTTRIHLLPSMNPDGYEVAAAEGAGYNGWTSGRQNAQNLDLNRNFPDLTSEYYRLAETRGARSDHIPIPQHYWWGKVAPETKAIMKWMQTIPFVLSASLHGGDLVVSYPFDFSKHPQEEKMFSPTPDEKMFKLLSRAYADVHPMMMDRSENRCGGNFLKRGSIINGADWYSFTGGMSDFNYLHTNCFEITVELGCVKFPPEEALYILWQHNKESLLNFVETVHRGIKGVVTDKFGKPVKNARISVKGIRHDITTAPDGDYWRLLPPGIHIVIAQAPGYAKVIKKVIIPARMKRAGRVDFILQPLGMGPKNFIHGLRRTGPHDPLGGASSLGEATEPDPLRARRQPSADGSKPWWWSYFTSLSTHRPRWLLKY
Experimental: Inhibition studies of CPE were performed in an acetate buffer containing 125 mM sodium acetate, pH 5.5, 1.25 mM CoCl2 at 37° C. […] CPE (final concentration 0.15 nM) was pre-incubated with inhibitors for 30 min at room temperature. The electrochemiluminescence substrate (final concentration 50 nM) was added and incubated for 6 hr at 37° C., then quenched with one-third volume of 1 M Tris, pH 8.0. The activity of CPZ was determined in 100 mM Tris, pH 7.4 at 37° C.
CPZ (final concentration 2 nM) was pre-incubated with inhibitors for 30 min at room temperature before substrate was added (final concentration 50 nM). […] The concentration of product was determined as described above.
as §2
Activities of CPE and CPZ were measures in acetate buffer (pH 5.5) and Tris buffer (pH 7.4), respectively.

[5] = tested on: CPE
Experimental: as §5, §2

[6] = target: most carboxypeptidases; conditions: read-out: Ki for most carboxypeptidases; all except CPE
Experimental: (§6) A typical assay (75 μL) contained each studied carboxypeptidase and selected inhibitors (in 5 μL DMSO) in HBSP buffer in 96-well round bottom microtiter plates (Costar 3365 plates). Enzyme and compound were preincubated for 15–30 minutes at room temperature. […] The final substrate concentration was 15 to 50 nM. The amount of carboxypeptidase activity was titrated to result in 40,000–50,000 electrochemiluminescence counts (typically 0.02–0.1 nM, 0.01 nM, 5 nM, and 0.15–0.65 nM. for TAFIa, CPB, CPN and CPM, respectively). […] Ruthenium-labeled G2-10 (25 μL of 0.063 μg/mL) and streptavidin magnetic beads (25 μL of 0.2 mg/mL, Dynabeads M-280) were added to the quenched solution and shaken at 300 rpm for >1 hr. G2-10 antibody and beads were prepared in a BSA diluent containing 150 mM phosphate, pH 7.8, 150 mM NaCl, 3% (w/v) BSA (protease free fraction V) and 0.05% NaN3. The volume was brought to 250 μL with HBSP and read on an Igen 96-well electrochemiluminescence plate reader (M8 Analyzer) at 620 nm. […]
(§7) All measurements were performed in at least duplicates and the inhibition constants (Ki) were determined by the equation below wherein Vo and Vi are activity in the absence and presence of inhibitors, respectively. […]
(§8) Hydrolysis of substrate was measured in HBSP (pH 7.4) for TAFIa, CPB, CPM, and CPM. […]

[7] = target: T4, CPN (Homo sapiens, UniProt P15169)
T4 sequence (P15169 21-458): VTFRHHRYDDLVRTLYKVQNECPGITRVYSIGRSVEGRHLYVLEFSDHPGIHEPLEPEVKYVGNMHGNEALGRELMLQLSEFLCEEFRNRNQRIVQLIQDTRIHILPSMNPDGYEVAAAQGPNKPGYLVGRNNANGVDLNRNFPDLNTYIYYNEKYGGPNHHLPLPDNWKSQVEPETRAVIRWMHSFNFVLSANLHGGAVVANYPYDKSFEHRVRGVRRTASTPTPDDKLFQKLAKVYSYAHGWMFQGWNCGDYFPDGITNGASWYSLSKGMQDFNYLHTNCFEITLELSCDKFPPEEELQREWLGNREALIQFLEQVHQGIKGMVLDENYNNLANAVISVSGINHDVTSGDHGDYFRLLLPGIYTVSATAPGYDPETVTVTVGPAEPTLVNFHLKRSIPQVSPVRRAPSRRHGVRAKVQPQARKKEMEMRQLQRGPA
T4 sequence (P22792 22-545 partner): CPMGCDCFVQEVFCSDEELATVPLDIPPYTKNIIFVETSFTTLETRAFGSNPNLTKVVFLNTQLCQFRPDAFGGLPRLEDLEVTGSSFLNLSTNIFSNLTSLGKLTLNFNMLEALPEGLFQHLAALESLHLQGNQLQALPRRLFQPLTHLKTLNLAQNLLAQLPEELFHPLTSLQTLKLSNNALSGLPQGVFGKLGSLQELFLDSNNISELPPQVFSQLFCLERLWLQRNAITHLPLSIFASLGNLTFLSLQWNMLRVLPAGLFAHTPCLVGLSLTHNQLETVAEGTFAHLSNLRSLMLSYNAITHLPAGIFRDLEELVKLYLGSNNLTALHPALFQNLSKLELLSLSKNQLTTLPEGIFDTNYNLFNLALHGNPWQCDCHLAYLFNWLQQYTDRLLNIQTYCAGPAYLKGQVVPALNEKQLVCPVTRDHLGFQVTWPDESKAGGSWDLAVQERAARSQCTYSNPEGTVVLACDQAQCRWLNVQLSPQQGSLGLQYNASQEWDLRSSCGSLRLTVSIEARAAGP
Experimental: as §6, §7, §8

inhibitory potency toward CPB relative to TAFIa [1]: two to three orders of magnitude greater
Ki [2]: 0.003 µM
Molecule: N=C(N)NCCSCC(CS)C(=O)O (racemic) [Plummer's Inhibitor, DL-2-mercaptomethyl-3-guinidinoethylthiopropanoic acid]

Km ([2]; read-out: Km for CPM, 37° C.): > 50 µM
Molecule: CSCC[C@H](NC(=O)[C@H](CC(C)C)NC(=O)CNC(=O)CCCCCNC(=O)CCCCCNC(=O)CCCC[C@@H]1SC[C@@H]2NC(=O)N[C@@H]21)C(=O)N[C@H](C(=O)NCC(=O)NCC(=O)N[C@H](C(=O)N[C@H](C(=O)N[C@@H](CCCNC(=N)N)C(=O)O)C(C)C)C(C)C)C(C)C ({Biotin-Ahx-Ahx}-GLMVGGVVR-OH)

Ki [3]: 0.016 µM
inhibitory potency toward CPB relative to TAFIa [1]: two to three orders of magnitude greater
Ki [4]: 7 µM
fold less potent for CPZ than for CPE ([4]; CPZ versus CPE): 440 fold
Molecule: N=C(N)NCCSC(CC(=O)O)C(=O)O (centres unmarked) [GEMSA, 2-guanidinoethylmercaptosuccinic acid]

Molecule: NCCCCCC(=O)O [ε-aminocaproic acid]
fold more potent on CPE than inhibition of CPB ([5]; CPE versus CPB): > 100 fold
potency on CPE relative to the other enzymes ([5]; CPE versus other carboxypeptidases): two orders of magnitude more potent
IC50 [3]: 8 µM
Ki [3]: 8.2 µM
Ki [6]: ≥ 1000 µM

specificity for CPN activity ([7]; CPN versus the other carboxypeptidases): > 100 fold
Ki ([7]; read-out: Ki for CPN, room temperature, HBSP pH 7.4): 0.97 µM
Molecule: protamine

From patent publication US7176008B2, “Process for producing activated thrombin-activatable fibrinolysis inhibitor” (Merck & Co., Inc., priority 2002, dated 2007)
